# Source: patent US9962333B2, “Timed release of substances to treat ocular disorders” (BOARD OF TRUSTEES OF NORTHERN ILLINOIS UNIVERSITY, priority 2013, dated 2018)
# Test: physchem
# Settings: 37 °C, aqueous with cosolvent or surfactant or cyclodextrin, thermodynamic from solid
# Procedure: (a) 50 mg of riboflavin was mixed with different concentrations of HP-β-CD (5, 10, 15, 20, 25, 30 mM)
# (b) the mixture was stirred on rotary shaker for 72 hours at 37° C.
# (c) after reaching equilibrium, samples were filtered through a 0.2 μm filter and suitably analyzed using UV-vis spectrophotometer.
# (b) The mixture was stirred for 72 hrs. on a rotary shaker at 37° C.
# (c) After reaching equilibrium, samples were filtered through 0.2 μm membrane filter & analyzed using a spectrophotometer.
# (b) The solutions were left to equilibrate for 3 days on a shaker.
# (c) After filtration, the solutions were analyzed by UV-vis spectroscopy.
# The UV-vis absorption spectrum was obtained for each solution.
# The data was used to plot a phase solubility curve for both the cyclodextrine.
# 50 mg of ofloxacin was added to each sample and then shaken for 72 hrs to attain equilibrium.
smiles,measurement,setting,value
"Cc1cc2nc3c(=O)[nH]c(=O)nc-3n(C[C@H](O)[C@H](O)[C@H](O)CO)c2cc1C [Riboflavin, riboflavin]",solubility at 72 h,Solubility for HPβ CD,33 mg/mL
same,solubility at 72 h,Solubility for methyl β CD,31.1 mg/mL
